Results on ten compounds are retold here after ChEMBL document CHEMBL4725447, “De-risking Drug Discovery of Intracellular Targeting Peptides: Screening Strategies to Eliminate False-Positive Hits” (ACS Med Chem Lett, 2020).

Calls of active or inactive are those of the source. The rule behind the calls is not given here. Where a SMILES comes first, the peptide text is derived from it. Bridges are numbered along the chain shown (N, C = ends). [ ]: non-standard residue; d: D form. Phe(4-F) = N[C@@H](Cc1ccc(F)cc1)C(=O)O; d2Nal = N[C@H](Cc1ccc2ccccc2c1)C(=O)O; S5 = C=CCCC[C@](C)(N)C(=O)O

Data set [1] deals with U2OS. The experiment in a line: Antiproliferation activity against human U2OS cells assessed as measuring ATP content at > 20 uM measured after 72 hrs by CellTiter-Glo analysis. Particulars: dose microM >20, time 72.0 hrs. It is filed as functional, cell-based. A general note: Cellular ATP, detected with luciferase, serves as a proxy for viable cell number.
The target of data set [2] is Eukaryotic translation initiation factor 4E (Homo sapiens) (UniProt P06730). The experiment in a line: Binding affinity to eIF4E (unknown origin) upto 1 uM by surface plasmon resonance analysis. In general terms: In SPR one partner is held on a chip, and binding of the other changes the refractive index at the surface.
Data set [3] addresses T1, GTPase KRas (Homo sapiens, UniProt P01116). The experiment in a line: Inhibition of KRAS in human U2OS cells assessed as inhibition in phosphorylation of ERK at 20 uM incubated for 15 mins by Western blot analysis. It is filed as cell-based.
Target sequence in this assay (P01116 whole entry, looked up): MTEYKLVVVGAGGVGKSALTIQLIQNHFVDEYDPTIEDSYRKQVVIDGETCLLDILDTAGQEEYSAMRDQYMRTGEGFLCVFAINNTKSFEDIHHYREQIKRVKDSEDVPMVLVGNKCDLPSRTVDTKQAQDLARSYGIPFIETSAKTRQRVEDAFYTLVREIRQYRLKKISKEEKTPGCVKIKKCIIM
The test system of data set [4] is GTPase KRas (Homo sapiens), P01116 [G12D]. The experiment in a line: Binding affinity to KRAS G12D mutant (unknown origin) by isothermal titration calorimetry.
A short description of data set [5]: Aggregation property of peptides assessed as stable aggregates at 10 uM by dynamic light scattering analysis. It is filed as physicochemical.
Data set [6] addresses Eukaryotic translation initiation factor 4E (Homo sapiens) (UniProt P06730). The experiment in a line: Binding affinity to eIF4E (unknown origin) in presence of Fam-labelled peptides at 1 uM by surface plasmon resonance analysis.
Data set [7] has as its system GTPase KRas (Homo sapiens), P01116 [G12D]. Kind of data set: Binding affinity to KRAS G12D mutant (unknown origin) upto 1 uM by surface plasmon resonance analysis. The note with it: dose microM <=1.
Data set [8] deals with E3 ubiquitin-protein ligase Mdm2 (Homo sapiens) (UniProt Q00987). Kind of data set: Binding affinity to MDM2 (unknown origin) upto 1 uM by surface plasmon resonance analysis. The note with it: dose microM <=1.
Data set [9] has as its system HCT-116. The experiment in a line: Cytotoxicity against human HCT116 cells assessed as effect on cell membrane preincubated overnight measured after 4 hrs post stimulation by LDH release assay. In kind it is cell-based. On the technique in general: Release of lactate dehydrogenase indicates damage to the cell membrane.
Data set [10] concerns A549. The experiment in a line: Antiproliferation activity against human A549 cells assessed as measuring ATP content at > 20 uM measured after 72 hrs by CellTiter-Glo analysis. In kind it is functional, cell-based. Particulars: dose microM >20, time 72.0 hrs.
Data set [11] relates to GTPase KRas (Homo sapiens), P01116 [G12V]. The experiment in a line: Binding affinity to KRAS G12V mutant (unknown origin) by isothermal titration calorimetry.
The target of data set [12] is E3 ubiquitin-protein ligase Mdm2 (Homo sapiens) (UniProt Q00987). Kind of data set: Binding affinity to MDM2 (unknown origin) in presence of FAM-labelled peptides at 1 uM by surface plasmon resonance analysis.
Data set [13] has as its system GTPase KRas (Homo sapiens), P01116 [G12D]. The experiment in a line: Binding affinity to KRAS G12D mutant (unknown origin) assessed as change in melting temperature by SYPRO orange dye based thermal shift assay.
For data set [14], the system named is HCT-116. Kind of data set: Cytotoxicity against human HCT116 cells assessed as effect on cell membrane preincubated overnight measured after 4 hrs post stimulation by LDH release assay relative to control. It is filed as cell-based. Particulars: hct-116, 4 h.
The subject of data set [15] is GTPase KRas (Homo sapiens), P01116 [G12D]. The experiment in a line: (§1) Binding affinity to KRAS G12D mutant (unknown origin) using FAM-labelled peptide as substrate in absence of Tween20 by fluorescence polarization assay.
Data set [16] has as its target E3 ubiquitin-protein ligase Mdm2 (Homo sapiens) (UniProt Q00987). Kind of data set: Binding affinity to MDM2 (unknown origin) using FAM-labelled peptide as substrate in presence of Tween20 by fluorescence polarization assay.
Data set [17] addresses Eukaryotic translation initiation factor 4E (Homo sapiens) (UniProt P06730). Kind of data set: Binding affinity to eIF4E (unknown origin) using FAM-labelled peptide as substrate in absence of Tween20 by fluorescence polarization assay.
Data set [18] concerns the target E3 ubiquitin-protein ligase Mdm2 (Homo sapiens) (UniProt Q00987). Kind of data set: Binding affinity to MDM2 (unknown origin) using FAM-labelled peptide as substrate in absence of Tween20 by fluorescence polarization assay.
The target of data set [19] is Eukaryotic translation initiation factor 4E (Homo sapiens) (UniProt P06730). The experiment in a line: Binding affinity to eIF4E (unknown origin) using FAM-labelled peptide as substrate in presence of Tween20 by fluorescence polarization assay.
The nature of data set [20]: Aggregation property of FAM-labelled peptides assessed as diameter of aggregate size at 10 uM by dynamic light scattering analysis. In kind it is physicochemical.
Data set [21] relates to GTPase KRas (Homo sapiens), P01116 [G12D]. Kind of data set: Binding affinity to KRAS G12D mutant (unknown origin) in presence of FAM-labelled peptide at 1 uM by surface plasmon resonance analysis.
Data set [22] concerns the target Eukaryotic translation initiation factor 4E (Homo sapiens) (UniProt P06730). The experiment in a line: Binding affinity to eIF4E (unknown origin) in presence of peptides at 300 nM by surface plasmon resonance analysis.
The species named for data set [23] is Homo sapiens. Kind of data set: Binding affinity to KRAS Q61H mutant (unknown origin) using FAM-labelled peptide as substrate in presence of Tween20 by fluorescence polarization assay.
In data set [24] the target is GTPase KRas (Homo sapiens, UniProt P01116, G12D). The data set is described as §1.
Data set [25] has as its target T1, GTPase KRas. Kind of data set: Binding affinity to wild type KRAS (unknown origin) using FAM-labelled peptide as substrate in presence of Tween20 by fluorescence polarization assay.
Target sequence in this assay (P01116 whole entry, looked up): as above
The target in data set [26] is T1, GTPase KRas. Kind of data set: Binding affinity to wild type KRAS (unknown origin) using FAM-labelled peptide as substrate in absence of Tween20 by fluorescence polarization assay.
Target sequence in this assay (P01116 whole entry): as the sequence (P01116 whole entry, looked up) above

Sequence of GTPase KRas (Homo sapiens), P01116 [G12D] (P01116 whole entry G12D, looked up): as the sequence (P01116 whole entry, looked up) above, with G12D counted along it
Sequence of Eukaryotic translation initiation factor 4E (Homo sapiens) (P06730 whole entry): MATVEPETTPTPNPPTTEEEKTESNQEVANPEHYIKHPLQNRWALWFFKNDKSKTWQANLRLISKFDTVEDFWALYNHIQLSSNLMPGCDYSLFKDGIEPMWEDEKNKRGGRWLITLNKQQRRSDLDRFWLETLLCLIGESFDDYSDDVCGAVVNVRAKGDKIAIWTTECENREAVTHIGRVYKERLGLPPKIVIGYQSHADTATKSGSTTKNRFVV
Sequence of E3 ubiquitin-protein ligase Mdm2 (Homo sapiens) (Q00987 whole entry, looked up): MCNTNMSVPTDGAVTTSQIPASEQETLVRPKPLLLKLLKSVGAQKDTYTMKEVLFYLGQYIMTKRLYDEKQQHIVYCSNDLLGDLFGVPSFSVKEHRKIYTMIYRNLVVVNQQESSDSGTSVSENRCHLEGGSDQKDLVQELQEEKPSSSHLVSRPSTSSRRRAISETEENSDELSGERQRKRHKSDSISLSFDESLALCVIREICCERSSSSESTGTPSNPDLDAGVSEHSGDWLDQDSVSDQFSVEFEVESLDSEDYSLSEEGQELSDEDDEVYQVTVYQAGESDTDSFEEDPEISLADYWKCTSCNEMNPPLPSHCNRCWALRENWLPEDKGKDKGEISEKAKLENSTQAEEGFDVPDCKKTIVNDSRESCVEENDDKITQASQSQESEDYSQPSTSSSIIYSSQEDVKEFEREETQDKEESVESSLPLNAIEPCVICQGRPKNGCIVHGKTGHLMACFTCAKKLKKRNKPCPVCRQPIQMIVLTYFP
Sequence of GTPase KRas (Homo sapiens, UniProt P01116, G12D) (P01116 whole entry G12D): as the sequence (P01116 whole entry, looked up) above, with G12D counted along it
Sequence of GTPase KRas (Homo sapiens), P01116 [G12V] (P01116 whole entry G12V): as the sequence (P01116 whole entry, looked up) above, with G12V counted along it

In general, EC50 refers to the midpoint of the concentration-response curve. Regarding `CCCC[C@H]1NC(=O)[C@H](Cc2ccc(F)cc2)NC(=O)[C@H](CCCNC(=N)N)NC(=O)[C@@H](Cc2ccc3ccccc3c2)NC(=O)[C@H](CCCNC(=N)N)NC(=O)[C@H](CCCNC(=N)N)NC(=O)[C@H](CCCNC(=N)N)NC(=O)[C@H](C)NC(=O)[C@H]([C@@H](C)O)NC(=O)[C@@H](Cc2c[nH]c3ccccc23)NC(=O)[C@@H](CCC(N)=O)NC1=O`, the outcome in data set [1], in data set [6], in data set [10] and in [12] was Active. The result in data set [2], in [3], in [4], in [7], in data set [8] and in data set [11] was inactive. The Activity entry in data set [5] is “Not Active”. For the same compound, in data set [9], the EC50 worked out at 30 µM.
`CC(=O)NCCCC[C@H](N)C(=O)N[C@@H](CCCCN)C(=O)N[C@@H](CCCNC(=N)N)C(=O)N[C@@H](Cc1ccc(O)cc1)C(=O)N[C@@H](CO)C(=O)N[C@@H](CCCNC(=N)N)C(=O)N[C@@]1(C)CCC/C=C/CCC[C@@](C)(C(=O)N[C@@H](Cc2ccccc2)C(N)=O)NC(=O)[C@H](C(C)C)NC(=O)[C@H](C(C)C)NC(=O)[C@H](Cc2ccccc2)NC1=O` (H-K(Ac)KRYSR[S5]FVV[S5]F-NH2; staple (E) 7-11): the concentration giving a half-maximal response (EC50) in data set [9] amounted to 20 µM.
The term ΔTm denotes the shift of the melting midpoint relative to a reference. Regarding `CCCC[C@H]1NC(=O)[C@@H](Cc2ccc(F)cc2)NC(=O)[C@H](CCCNC(=N)N)NC(=O)[C@@H](Cc2ccc3ccccc3c2)NC(=O)[C@H](CCCNC(=N)N)NC(=O)[C@H](CCCNC(=N)N)NC(=O)[C@@H](CCCNC(=N)N)NC(=O)[C@@H](C)NC(=O)[C@H](C(C)(C)C)NC(=O)[C@H](Cc2c[nH]c3ccccc23)NC(=O)[C@H](CCC(N)=O)NC1=O`, the ΔTm in [13] was -5.9 °C.
On to `CC[C@H](C)[C@H](NC(=O)[C@]1(C)CCC/C=C/CCC[C@](C)(NC(=O)CNC(=O)[C@H](Cc2ccccc2)NC(=O)[C@H](Cc2ccccc2)NC(=O)[C@H](CCCNC(=N)N)NC(=O)[C@H](CCCNC(=N)N)NC(C)=O)C(=O)N[C@@H](Cc2ccc(O)cc2)C(=O)N[C@@H](CC(C)C)C(=O)N[C@@H]([C@@H](C)O)C(=O)N1)C(=O)N[C@@H](CC(C)C)C(=O)N[C@@H](CCCCN)C(=O)N[C@H](C(=O)N[C@@H](CCC(=O)O)C(=O)N[C@@H](CCC(=O)O)C(=O)NCC(=O)N[C@@H](CC(N)=O)C(N)=O)[C@@H](C)O`, for which the values for the Activity in [14], in data set [5] and in data set [20] were below 10%, “Not Active” and 1200 nm, respectively. Moreover, the outcome in data set [15], in data set [17] and in data set [18] was Active. Moreover, the outcome in [16] and in [19] was inactive.
For `CC(=O)N[C@@H](CC(C)C)C(=O)N[C@H](C(=O)N[C@@H](Cc1ccccc1)C(=O)N[C@]1(C)CCCCCC/C=C/CCC[C@@](C)(C(=O)N[C@H](CO)C(=O)N[C@H](C)C(=O)N[C@H](C)C(N)=O)NC(=O)[C@@H](CC2CCC2)NC(=O)[C@H](CC(C)C)NC(=O)[C@H](CCC(N)=O)NC(=O)[C@H](Cc2c[nH]c3ccccc23)NC(=O)[C@H](Cc2ccc(O)cc2)NC(=O)[C@H](CCC(=O)O)NC1=O)[C@@H](C)O`, the result in [21] was inactive.
In the case of `CC(=O)N[C@@H](CCCCN)C(=O)N[C@@H](CCCCN)C(=O)N[C@@H](CCCNC(=N)N)C(=O)N[C@@H](Cc1ccc(O)cc1)C(=O)N[C@@H](CO)C(=O)N[C@@H](CCCNC(=N)N)C(=O)NC(C)(C)C(=O)N[C@@H](CCC(N)=O)C(=O)N[C@@H](CC(C)C)C(=O)N[C@@H](CC(C)C)C(=O)NC(C)(C)C(=O)N[C@@H](CC(C)C)C(N)=O`, in data set [14], the Activity is below 10%. In addition, in data set [21], the outcome was inactive. Moreover, in data set [22], the outcome was Active.
In the case of `CC(=O)N[C@@H](CC(C)C)C(=O)N[C@H](C(=O)N[C@@H](Cc1ccccc1)C(=O)N[C@]1(C)CCCCCC/C=C/CCC[C@@](C)(C(=O)N[C@@H](CO)C(=O)N[C@@H](C)C(=O)N[C@@H](C)C(N)=O)NC(=O)[C@H](CC2CCC2)NC(=O)[C@H](CC(C)C)NC(=O)[C@H](CCC(N)=O)NC(=O)[C@H](Cc2c[nH]c3ccccc23)NC(=O)[C@H](Cc2ccc(O)cc2)NC(=O)[C@H](CCC(=O)O)NC1=O)[C@@H](C)O`, in data set [14], the Activity is below 10%.
As for `C[C@H]1NC(=O)[C@H](CCCNC(=N)N)NC(=O)[C@H](Cc2c[nH]c3ccccc23)NC(=O)[C@H](CCCNC(=N)N)NC(=O)[C@H](Cc2ccc(F)cc2)NC(=O)[C@H](CCCNC(=N)N)NC(=O)[C@@H](Cc2ccc3ccccc3c2)NC(=O)[C@H](CCCNC(=N)N)NC(=O)[C@H](CCCNC(=N)N)NC(=O)[C@H](CCC(N)=O)NC1=O` (cyclo(RR[d2Nal]R[Phe(4-F)]RWR[dA]Q)), the Activity in [14] is recorded as below 10%.
In general, Kd refers to the free concentration of one partner at which half of the binding sites on the other are occupied at equilibrium, for simple one-to-one binding. Take `CC[C@H](C)[C@H](NC(=O)CNC(=O)[C@H](Cc1ccccc1)NC(=O)[C@H](Cc1ccccc1)NC(=O)[C@H](CCCNC(=N)N)NC(=O)[C@H](CCCNC(=N)N)NC(C)=O)C(=O)N[C@@]1(C)CCC/C=C/CCC[C@@](C)(C(=O)N[C@@H](CC(C)C)C(=O)N[C@@H](CCCCN)C(=O)N[C@H](C(=O)N[C@@H](CCC(=O)O)C(=O)N[C@@H](CCC(=O)O)C(=O)NCC(=O)N[C@@H](CC(N)=O)C(N)=O)[C@@H](C)O)NC(=O)[C@H](CC(N)=O)NC(=O)[C@H]([C@@H](C)O)NC(=O)[C@H](CC(C)C)NC1=O`: the outcome in data set [1], in data set [6], in [10], in data set [17], in [18] and in data set [12] was Active. The result in [2], in data set [4], in [23], in [21], in [7] and in [8] was inactive. The outcome in data set [25] was inactive. Further, in data set [3], the inhibition result is “Active”. Further, the Activity result in [5] is given as “Not Active”; in data set [20], 350 nm. Also, the Kd in [24] and in [26] was 0.43 µM throughout. Further, the EC50 in data set [9] was 10 µM.
For the compound `C=CCCC[C@](C)(NC(=O)[C@H](CC(N)=O)NC(=O)[C@@H](NC(=O)[C@H](CC(C)C)NC(=O)[C@](C)(CCCC=C)NC(=O)[C@@H](NC(=O)CNC(=O)[C@H](Cc1ccccc1)NC(=O)[C@H](Cc1ccccc1)NC(=O)[C@H](CCCNC(=N)N)NC(=O)[C@H](CCCNC(=N)N)NC(C)=O)[C@@H](C)CC)[C@@H](C)O)C(=O)N[C@@H](CC(C)C)C(=O)N[C@@H](CCCCN)C(=O)N[C@H](C(=O)N[C@@H](CCC(=O)O)C(=O)N[C@@H](CCC(=O)O)C(=O)NCC(=O)N[C@@H](CC(N)=O)C(N)=O)[C@@H](C)O`, in [9], the half-maximal effective concentration (EC50) was 8 µM.
